Measurements reported in patent US12611393B2, “Treatment of pain by targeting NR4A1” (UNIVERSITY OF CINCINNATI, priority 2019, dated 2026).

Assays:
[1] = test system: mice with paclitaxel-induced mechanical allodynia; assay: Paclitaxel-induced neuropathic pain (CINP) model, mechanical allodynia; type: in vivo, mouse; details: male WT mice, vs PBS
Excerpt: FIGS. 9A and 9B are graphs showing that NR4A1 deficiency exacerbates chemotherapy-induced neuropathic pain and neuroinflammation in DRG tissue.
FIGS. 10A and 10B are graphs showing that NA4A1 activation by Cytosporone B (Csn-B) prevents and reverses chemotherapy induced neuropathic pain. […]

[2] = test system: mice after plantar incision (postoperative pain); assay: Plantar incision model of postoperative pain (von Frey filaments, Hargreaves test); type: in vivo, mouse; details: vs vehicle; for resolution of postoperative pain (mechanical and thermal hypersensitivity): von Frey filaments and Hargreaves test
Description: (§1) To investigate the underlying mechanisms of postoperative pain, we adopted a mouse model that is characterized by increased pain sensitivity and macrophage infiltration after a surgical incision made in the plantar aspect of the hind paw. Pain sensitivity and macrophage infiltration were evaluated in NA4A1 knockout (KO) mice. Expression and function of NR4A1 were also evaluated in neuronal and skin tissues, as well as in cultured macrophages.
We used a well-characterized animal model of postoperative pain consisting in plantar incision (FIG. 1). Specifically, FIGS. 1A-1C show an animal model of post-operative pain. FIG. 1A illustrates the experimental design depicting the plantar incision and timeline for the behavioral tests. FIG. 1B is a graph showing how, after plantar incision, mice develop mechanical hypersensitivity (assessed by von Frey filaments) and FIG. 1C is a graph showing thermal hypersensitivity (assessed by Hargreaves test). […]
Cutaneous application of an NA4A1 agonist accelerates the resolution of post-operative pain. […] FIG. 4B is a graph showing mechanical hypersensitivity as assessed by von Frey filaments before injection of the drug (prevention). FIG. 4C is a graph showing mechanical hypersensitivity as assessed by von Frey filaments after drug injection (acute analgesia). FIG. 4D is a graph showing thermal hypersensitivity as assessed by Hargreaves test before injection of the drug (prevention). FIG. 4E is a graph showing thermal hypersensitivity as assessed by Hargreaves test after drug injection (acute analgesia). […]
FIG. 5B is a graph showing mechanical hypersensitivity as assessed by von Frey filaments before injection of the drug (prevention), and FIG. 5C is a graph showing mechanical hypersensitivity as assessed by von Frey filaments after drug injection (acute analgesia). FIG. 5D is a graph showing thermal hypersensitivity as assessed by Hargreaves test before injection of the drug (prevention). FIG. 5D is a graph showing thermal hypersensitivity as assessed by Hargreaves test after drug injection (acute analgesia). […]

Peritoneal macrophages = assay: Expression of pro-inflammatory mediators in cultured peritoneal macrophages activated with LPS; type: cell-based, mouse; details: Cyto B 10 μg/ml, LPS 20 ng/ml
Description: Peritoneal macrophages were cultured and incubated with vehicle control, cytosporone B (Cyto B, 10 μg/ml) or/and the macrophage activator lipopolysaccharide (LPS, 20 ng/ml). n=4-8 cultures per group, One-way ANOVA, *p<0.05 (Vehicle vs. LPS, Bonferroni), #p<0.05 (LPS VS. LPS+Cyto B, Bonferroni).

[3] = test system: NR4A1 knockout male mice after plantar incision; assay: Plantar incision model of postoperative pain in NR4A1 knockout mice (von Frey filaments, Hargreaves test); type: in vivo, mouse; details: local intraplantar injection, vs vehicle
Description: as §1
We used a well-characterized animal model of postoperative pain consisting in plantar incision (FIG. 1). Specifically, FIGS. 1A-1C show an animal model of post-operative pain. FIG. 1A illustrates the experimental design depicting the plantar incision and timeline for the behavioral tests. FIG. 1B is a graph showing how, after plantar incision, mice develop mechanical hypersensitivity (assessed by von Frey filaments) and FIG. 1C is a graph showing thermal hypersensitivity (assessed by Hargreaves test). These hypersensitivities are indicative of postoperative pain and resolve in 7 days. n=6 male mice per group, One-way ANOVA, *p<0.05 (Bonferroni).
FIG. 6A is a graph showing mechanical hypersensitivity as assessed by von Frey filaments, and FIG. 6B is a graph showing thermal hypersensitivity as assessed by Hargreaves test. […]

Structure (SMILES): CCCCCCCC(=O)c1c(O)cc(O)cc1CC(=O)OCC [Cytosporone B]
- prevention of mechanical allodynia (chemotherapy induced neuropathic pain) ([1]; paclitaxel 2 mg/kg every other day x4, Csn-B intrathecal (i.t.) given with paclitaxel): significantly prevent
- reversal of mechanical allodynia (chemotherapy induced neuropathic pain) ([1]; treatment 14 d after first paclitaxel delivery, different doses of Csn-B): reverse
- resolution of postoperative pain (mechanical and thermal hypersensitivity) ([2]; female mice, local intraplantar injection): accelerates the resolution of postoperative pain
- resolution of postoperative pain (mechanical and thermal hypersensitivity) ([2]; male mice, local intraplantar injection (i.pl.)): accelerates the resolution of postoperative pain
- effect on postoperative pain (mechanical and thermal hypersensitivity) ([2]; male mice, systemic intraperitoneal injection): limited effects on postoperative pain
- expression of pro-inflammatory mediators in macrophages (Peritoneal macrophages): decreases the expression of pro-inflammatory mediators
- resolution of postoperative pain (mechanical and thermal hypersensitivity) [3]: fails to resolve postoperative pain
